Data: US7365231B2, “Compound with antitumor activity and preparation method therefor” (National Taiwan University of Science & Technology, priority 2005, dated 2008)

What was measured:
[1] = tested on: human colon cancer Colo 205 xenografts; test: In vivo antiproliferation, colon cancer xenografts, DPA once a week; parameters: species or system ICR nude mice; details: for tumor size compared to vehicle control: end point
Procedure: (§1) We further examined whether DPA is also effective in vivo after tumor formation. For compare the in vivo antitumor activity with DPD (DPA analogue), we followed the method of our previous study (Br. J Cancer 2003; 89: 1995-2003), and the similar doses were used. Cancer cells were transplanted into ICR nude mice, and when the tumors were palpable (2-4 mm), the mice were treated either with vehicle control or DPA (20-80 mg kg^−1, i.p., once a week). […] Its tumor size (48.6 mm^2) was about 3-fold larger than the average tumor size (16.7 mm^2) of the other DPA 80 mg kg^−1-treated mice at 7 days after the initial treatment. […] (ii) DPA presented the dose-specific effect for antitumor activity on human colon cancer xenografts. The dose-specific phenomenon was also found in vitro study of DPA-induced cell cycle arrest on Colo 205 cells as shown in Table 3.

[2] = Toxicity and body weight in nude mice, DPA once a week; assay type: in vivo; details: DPA 20-80 mg kg^−1, i.p.
Procedure: as §1

Colo 205 cells = test: Cell cycle analysis by flow cytometry; assay type: cell-based, human

Nc1ccc(Oc2ccc(C3(c4ccc(Oc5ccc(N)c(O)c5)cc4)C4CC5CC(C4)CC3C5)cc2)cc1O [DPA, 2,2-bis(4-(4-amino-3-hydroxyphenoxy)phenyl)adamantane]
concentration of maximum in vivo antitumor effect ([1]; Colo 205 xenografts, i.p.): about 40 mg kg^−1 week^−1
tumor size compared to vehicle control ([1]; DPA 20 mg kg^−1 i.p. once a week): not significantly decreased
tumor size compared to control groups ([1]; DPA 40 mg kg^−1 i.p. once a week): significantly (P<0.05) decreased
average tumor size ([1]; DPA 40 mg kg^−1 i.p. once a week, end of study (control 81.5)): 29.6 mm^2
tumor size of one mouse with abnormally large tumor ([1]; DPA 80 mg kg^−1, 7 days after initial treatment): 48.6 mm^2
average tumor size of the other mice ([1]; DPA 80 mg kg^−1, 7 days after initial treatment, without the outlier mouse): 16.7 mm^2
tumor size compared to vehicle control ([1]; DPA 80 mg kg^−1 i.p. once a week): not significantly decreased
body weight [2]: No significant reduction in body weight
G0/G1 cell-cycle arrest and apoptosis (Colo 205 cells; Colo205): G0/G1 cell-cycle arrest without concomitant apoptosis
cells in G1 phase (Colo 205 cells; Colo 205, 2 μM DPA for 48-72 h): 84.1-87.1%
cells in G2/M phase (Colo 205 cells; Colo 205, 2 μM DPA for 48-72 h): 5.1-5.6%
cells in S phase (Colo 205 cells; Colo 205, 2 μM DPA for 48-72 h): 7.8-10.3%
G0/G1(%) (Colo 205 cells; Colo 205, DPA 1 μM, 24 h): 58.9%
G2/M(%) (Colo 205 cells; Colo 205, DPA 1 μM, 24 h): 12.0%
S(%) (Colo 205 cells; Colo 205, DPA 1 μM, 24 h): 29.0%
G0/G1(%) (Colo 205 cells; Colo 205, DPA 1 μM, 48 h): 53.3%
G2/M(%) (Colo 205 cells; Colo 205, DPA 1 μM, 48 h): 7.6%
S(%) (Colo 205 cells; Colo 205, DPA 1 μM, 48 h): 39.0%
G0/G1(%) (Colo 205 cells; Colo 205, DPA 1 μM, 72 h): 60.3%
G0/G1(%) (Colo 205 cells; Colo 205, DPA 2 μM, 24 h): 67.1%
G2/M(%) (Colo 205 cells; Colo 205, DPA 2 μM, 24 h): 48.3%
S(%) (Colo 205 cells; Colo 205, DPA 2 μM, 24 h): 24.1%
G0/G1(%) (Colo 205 cells; Colo 205, DPA 2 μM, 48 h): 84.1%
G2/M(%) (Colo 205 cells; Colo 205, DPA 2 μM, 48 h): 5.6%
S(%) (Colo 205 cells; Colo 205, DPA 2 μM, 48 h): 10.3%
G0/G1(%) (Colo 205 cells; Colo 205, DPA 2 μM, 72 h): 87.1%
G2/M(%) (Colo 205 cells; Colo 205, DPA 2 μM, 72 h): 5.1%
S(%) (Colo 205 cells; Colo 205, DPA 2 μM, 72 h): 7.8%
G0/G1(%) (Colo 205 cells; Colo 205, DPA 4 μM, 24 h): 67.5%
G2/M(%) (Colo 205 cells; Colo 205, DPA 4 μM, 24 h): 8.2%
S(%) (Colo 205 cells; Colo 205, DPA 4 μM, 24 h): 24.3%
G0/G1(%) (Colo 205 cells; Colo 205, DPA 4 μM, 48 h): 71.6%
G2/M(%) (Colo 205 cells; Colo 205, DPA 4 μM, 48 h): 10.4%
S(%) (Colo 205 cells; Colo 205, DPA 4 μM, 48 h): 18.1%
G0/G1(%) (Colo 205 cells; Colo 205, DPA 4 μM, 72 h): 76.3%
G2/M(%) (Colo 205 cells; Colo 205, DPA 4 μM, 72 h): 10.3%
S(%) (Colo 205 cells; Colo 205, DPA 4 μM, 72 h): 13.4%
G0/G1(%) (Colo 205 cells; Colo 205, DPA 8 μM, 24 h): 70.5%
G2/M(%) (Colo 205 cells; Colo 205, DPA 8 μM, 24 h): 5.2%
S(%) (Colo 205 cells; Colo 205, DPA 8 μM, 24 h): 24.3%
G0/G1(%) (Colo 205 cells; Colo 205, DPA 8 μM, 48 h): 70.6%
G2/M(%) (Colo 205 cells; Colo 205, DPA 8 μM, 48 h): 5.2%
S(%) (Colo 205 cells; Colo 205, DPA 8 μM, 48 h): 24.1%
G0/G1(%) (Colo 205 cells; Colo 205, DPA 8 μM, 72 h): 70.7%
G2/M(%) (Colo 205 cells; Colo 205, DPA 8 μM, 72 h): 3.4%
S(%) (Colo 205 cells; Colo 205, DPA 8 μM, 72 h): 25.8%
